One data set has as its system HIV-1 IIIB. Put plainly: HIV-1-mediated cytopathic effect (CPE). It is filed as cell-based. The conditions noted are these: read-out: EC50 (μM) (M ± SD) for inhibition of CPE. The text has this: We thus purchased these compounds and tested their inhibitory activity on: 1) HIV-1 replication (p24 production); 2) HIV-1-mediated cytopathic effect (CPE); and 3) HIV-1 Env-induced cell-cell fusion; and their cytotoxicity to MT-2 cells.
In general terms: Cytopathic effects are the visible damage that an infection or toxin causes in cultured cells.

A further data set relates to 93BR020 (clade F, X4R5). The conditions noted are these: read-out: EC50 (μM) (Mean ± SD). The protocol:
(§1) Inhibitory activity of compounds on infection by primary HIV-1 isolates was determined as previously described (37). PBMCs were isolated from the blood of healthy donors at the New York Blood Center by standard density gradient centrifugation using Histopaque-1077 (Sigma). The cells were plated in 75 cm^2 plastic flasks and incubated at 37° C. for 2 hrs. The nonadherent cells were collected and resuspended at 5×10^6 in 10 ml RPMI-1640 medium containing 10% FBS, 5 μg/ml PHA and 100 U/ml IL-2 (Sigma), followed by incubation at 37° C. for 3 days. The PHA-stimulated cells were infected with corresponding primary HIV-1 isolates at 0.01 multiplicity of infection (MOI) in the absence or presence of a compound at graded concentrations. Culture media were changed every 3 days. The supernatants were collected 7 days post-infection and tested for p24 antigen by ELISA as described above. The percent inhibition of p24 production and IC50 values were calculated as described above.

The test system of the next data set is 92US657 (clade B, R5). The following applies: read-out: EC50 (μM) (Mean ± SD). The protocol:
as §1

The next data set has as its system 92THA009 (clade E, R5). The following applies: read-out: EC50 (μM) (Mean ± SD). Here is the method:
as §1

A further data set relates to 94UG103 (clade A, X4R5). The conditions noted are these: read-out: EC50 (μM) (Mean ± SD). The protocol: as §1
In another data set the test system is RU570 (clade G, R5). The following applies: read-out: EC50 (μM) (Mean ± SD). The protocol: as §1
A further data set has as its system 93MW959 (clade C, R5). The following applies: read-out: EC50 (μM) (Mean ± SD). The protocol:
as §1

Another data set relates to BCF02 (clade O, R5). The conditions noted are these: read-out: EC50 (μM) (Mean ± SD). The protocol: as §1
The test system of another data set is 92UG001 (clade D, X4). The following applies: read-out: EC50 (μM) (Mean ± SD). Here is the method:
as §1

Data set [1] deals with HIV-1 AZT-R, a strain resistant to AZT. The following applies: read-out: IC50 (μM) (Mean ± SD); HIV-1 strain AZT-R. Here is the method:
(§2) Assessment of anti-HIV-1 infectivity. The inhibitory activity of compounds on infection by laboratory-adapted HIV-1 strains was determined as previously described (34). In brief, 1×10^4 MT-2 cells were infected with HIV-1 at 100 TCID50 (50% tissue culture infective dose) in 200 μl of RPMI 1640 medium containing 10% FBS in the presence or absence of compounds at graded concentrations overnight. For the time-of-addition assay, compounds were added at various time post-infection. Then the culture supernatants were removed and fresh media were added. On the fourth day post-infection, 100 μl of culture supernatants were collected from each well, mixed with equal volumes of 5% Triton X-100 and assayed for p24 antigen, which was quantitated by ELISA (23). Briefly, the wells of polystyrene plates (Immulon 1B, Dynex Technology, Chantilly, Va.) were coated with HIV immunoglobulin (HIVIG), which was prepared from plasma of HIV-seropositive donors with high neutralizing titers against HIV-1IIIB as previously described (36) in 0.085 M carbonate-bicarbonate buffer (pH 9.6) at 4° C. overnight, followed by washes with PBS-T buffer (0.01M PBS containing 0.05% Tween-20) and blocking with PBS containing 1% dry fat-free milk (Bio-Rad Inc., Hercules, Calif.). Virus lysates were added to the wells and incubated at 37° C. for 1 h. […] Reactions were terminated by addition of 1N H2SO4. Absorbance at 450 nm was recorded in an ELISA reader (Ultra 384, Tecan). Recombinant protein p24 (US Biological, Swampscott, Mass.) was included for establishing standard dose response curve.

A further data set concerns HIV-1 RF. The following applies: read-out: IC50 (μM) (Mean ± SD); HIV-1 strain RF. The protocol: as §2
The subject of a further data set is HIV-1 SF2. The conditions noted are these: read-out: IC50 (μM) (Mean ± SD); HIV-1 strain SF2. The protocol:
as §2

For another data set, the system named is HIV-1 MN. The conditions noted are these: read-out: IC50 (μM) (Mean ± SD); HIV-1 strain MN. The protocol:
as §2

Data set [2] has as its system laboratory-adapted HIV-1 strains, including RF, SF2, MN, and AZT-R. The following applies: dose-dependent. The protocol:
as §2

[3] abbreviates: read-out: Cytotoxicity CC50 (μM) (M ± SD), MT-2 cells.

SMILES strings stand for the structures. Like-named read-outs stand apart in the source and are kept apart here.

By EC50 is commonly meant the concentration needed to bring the measured effect to its halfway point. By IC50 is commonly meant the midpoint of a concentration-inhibition curve. In general, CC50 refers to the concentration giving 50% cytotoxicity. For `CCN1C(=O)/C(=C/c2ccc(-c3cccc(C(=O)O)c3)o2)SC1=S` [NB179], the EC50 in the data set with HIV-1 IIIB is 0.924 ± 0.077 µM; in the data set on 93BR020 (clade F, X4R5), 0.143 ± 0.056 µM; in the data set with 92US657 (clade B, R5) it was 0.847 ± 0.356 µM; with 92THA009 (clade E, R5), 6.21 ± 0.987 µM; in the data set on 94UG103 (clade A, X4R5), 0.088 ± 0.047 µM; in the data set on RU570 (clade G, R5), 0.431 ± 0.122 µM. Moreover, the EC50 was determined as 1.87 ± 0.155 µM with 93MW959 (clade C, R5); 0.886 ± 0.242 µM with BCF02 (clade O, R5); 0.613 ± 0.099 µM in the data set with 92UG001 (clade D, X4). The IC50 in [1] was 4.39 ± 0.471 µM; with HIV-1 RF it was 4.2 ± 0.256 µM; in the data set on HIV-1 SF2, 11.9 ± 1.7 µM; in the data set with HIV-1 MN, 2.93 ± 0.362 µM. The “IC50 values, infection by other laboratory-adapted HIV-1 strains” value (from here on “IC50 values, infection”) in data set [2] is given as “nanomolar range”. Besides, the CC50 in the data set with MT-2 cells was greater than 616 µM.

In the case of `O=C(O)c1cc(-c2ccc(/C=C3\SC(=S)N(CCc4ccccc4)C3=O)o2)ccc1Cl` [NB206], the EC50 with HIV-1 IIIB came to 0.092 ± 0.002 µM; in the data set with 93BR020 (clade F, X4R5), 0.084 ± 0.036 µM; in the data set with 92US657 (clade B, R5) it was 0.216 ± 0.054 µM; in the data set with 92THA009 (clade E, R5), 0.075 ± 0.022 µM; in the data set with 94UG103 (clade A, X4R5), 0.004 ± 0.001 µM; in the data set with RU570 (clade G, R5) it was 0.017 ± 0.004 µM. The EC50 with 93MW959 (clade C, R5) was 0.097 ± 0.002 µM; in the data set on BCF02 (clade O, R5), 0.073 ± 0.012 µM; in the data set on 92UG001 (clade D, X4), 0.188 ± 0.053 µM. The IC50 in data set [1] was 0.046 ± 0.004 µM; in the data set with HIV-1 RF it was 0.034 ± 0.014 µM; in the data set with HIV-1 SF2 it was 0.261 ± 0.062 µM; in the data set on HIV-1 MN it was 0.174 ± 0.027 µM. Moreover, the “IC50 values, infection” value in data set [2] is listed as “nanomolar range”. Also, the CC50 in the data set on MT-2 cells (setting [3]) was 18.8 ± 7.48 µM.

On to `O=C(O)c1cccc(-c2ccc(/C=C3\SC(=S)N(c4ccc(Cl)cc4Cl)C3=O)o2)c1` [NB231], for which the EC50 in the data set with HIV-1 IIIB was 0.525 ± 0.126 µM; with 93BR020 (clade F, X4R5) it was 0.139 ± 0.033 µM; in the data set on 92US657 (clade B, R5), 1.06 ± 0.344 µM; in the data set on 92THA009 (clade E, R5), 0.217 ± 0.058 µM; in the data set on 94UG103 (clade A, X4R5), 0.125 ± 0.013 µM; in the data set on RU570 (clade G, R5) it was 0.143 ± 0.061 µM. Moreover, the EC50 in the data set on 93MW959 (clade C, R5) was found to be 0.876 ± 0.002 µM; in the data set with BCF02 (clade O, R5) it was 0.226 ± 0.003 µM; in the data set on 92UG001 (clade D, X4) it was 0.19 ± 0.002 µM. For the same compound, the IC50 stood at 0.823 ± 0.053 µM in data set [1], 0.152 ± 0.029 µM with HIV-1 RF, 4.68 ± 0.559 µM in the data set on HIV-1 SF2 and 1.69 ± 0.044 µM in the data set on HIV-1 MN. Besides, in data set [2], the “IC50 values, infection” value is on record as “nanomolar range”. The CC50 in the data set on MT-2 cells (setting [3]) was 124.1 ± 0.756 µM.

The values are drawn from US20060287319A1, “Anti-viral compositions comprising heterocyclic substituted phenyl furans and related compounds” (priority 2005, published 2006).
